In publication PMC4288171, “Meclofenamic acid selectively inhibits FTO demethylation of m^6A over ALKBH5” (Nucleic Acids Research, 2014):

Target: T1, FTO (Homo sapiens, UniProt Q9C0B1)
T1 construct: FTOΔN31 (His-tag human FTO with N-terminal 31 residues truncated)
Assay: crystal structure at […] Å; DSF shift; FP displacement (IC50 […]); IC50 from HPLC demethylation assay on ssDNA
Format: biochemical

T1 sequence (Q9C0B1 32-505): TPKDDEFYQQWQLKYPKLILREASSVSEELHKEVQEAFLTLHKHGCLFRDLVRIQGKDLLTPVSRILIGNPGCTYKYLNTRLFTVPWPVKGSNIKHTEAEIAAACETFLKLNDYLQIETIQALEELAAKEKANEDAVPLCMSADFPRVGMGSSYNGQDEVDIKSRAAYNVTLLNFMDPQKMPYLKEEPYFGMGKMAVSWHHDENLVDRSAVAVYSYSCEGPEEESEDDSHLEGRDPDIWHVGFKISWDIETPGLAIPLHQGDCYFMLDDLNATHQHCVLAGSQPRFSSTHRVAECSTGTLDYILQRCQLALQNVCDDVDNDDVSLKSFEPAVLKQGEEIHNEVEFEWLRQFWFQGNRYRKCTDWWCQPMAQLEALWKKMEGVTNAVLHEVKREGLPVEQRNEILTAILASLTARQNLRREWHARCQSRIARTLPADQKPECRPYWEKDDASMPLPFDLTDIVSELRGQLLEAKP

Work on `Cc1ccc(Cl)c(Nc2ccccc2C(=O)O)c1Cl` [MA, meclofenamic acid] yielded an IC50 of 7 µM.
